Experimental data reported in PubChem BioAssay AID2060506 (Molecular Pharmacology Branch, DTP, NCI, 2025).

Tested on: 598228-144-R-J1-PDC complex spheroid viability
Assay: Anticancer human tumor 598228-144-R-J1-PDC patient-derived serous endometrial adenocarcinoma cell line growth inhibition [GQUAD]
Conditions: for IC50: curve of first compound; for viability, T/C: stronger effect = lower value
How it was run: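 Multi-cell-type spheroids of tumor cells with HUVEC and mesenchymal stem cells, treated with drug combinations. Concentrations descend in half-log steps from near clinical Cmax, or from 10 microM where Cmax is unknown; viability read-out.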

[1] = second compound 0.0316 µM, first compound 0.0316 µM
[2] = second compound 0.0316 µM, first compound 0.1 µM
[3] = second compound 0.0316 µM, first compound 0.316 µM
[4] = second compound 0.0316 µM, first compound 1 µM
[5] = second compound 0.0316 µM, first compound 3.16 µM
[6] = second compound 0.0316 µM, first compound 10 µM
[7] = second compound 0.1 µM, first compound 0.0316 µM
[8] = second compound 0.1 µM, first compound 0.1 µM
[9] = second compound 0.1 µM, first compound 0.316 µM
[10] = second compound 0.1 µM, first compound 1 µM
[11] = second compound 0.1 µM, first compound 3.16 µM
[12] = second compound 0.1 µM, first compound 10 µM
[13] = second compound 0.316 µM, first compound 0.0316 µM
[14] = second compound 0.316 µM, first compound 0.1 µM
[15] = second compound 0.316 µM, first compound 0.316 µM
[16] = second compound 0.316 µM, first compound 1 µM
[17] = second compound 0.316 µM, first compound 3.16 µM
[18] = second compound 0.316 µM, first compound 10 µM
[19] = second compound 1 µM, first compound 0.0316 µM
[20] = second compound 1 µM, first compound 0.1 µM
[21] = second compound 1 µM, first compound 0.316 µM
[22] = second compound 1 µM, first compound 1 µM
[23] = second compound 1 µM, first compound 3.16 µM
[24] = second compound 1 µM, first compound 10 µM
[25] = second compound 3.16 µM, first compound 0.0316 µM
[26] = second compound 3.16 µM, first compound 0.1 µM
[27] = second compound 3.16 µM, first compound 0.316 µM
[28] = second compound 3.16 µM, first compound 1 µM
[29] = second compound 3.16 µM, first compound 3.16 µM
[30] = second compound 3.16 µM, first compound 10 µM
[31] = second compound 10 µM, first compound 0.0316 µM
[32] = second compound 10 µM, first compound 0.1 µM
[33] = second compound 10 µM, first compound 0.316 µM
[34] = second compound 10 µM, first compound 1 µM
[35] = second compound 10 µM, first compound 3.16 µM
[36] = second compound 10 µM, first compound 10 µM
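Further: spheroids exposed to the agents for one week before reading.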
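Wherever viability, T/C is given: percent of vehicle DMSO control viability so 100% = untreated growth.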

COc1ccc([C@@H](O)c2cc(-c3ncnc4cc(N5CCOCC5)ccc34)c(F)cc2Cl)nn1 + CN(C)c1ccc(Nc2c3ccc(NC(=O)CCN4CCCC4)cc3nc3cc(NC(=O)CCN4CCCC4)ccc23)cc1
IC50 (second compound 0.0316 µM): 2600 nM | IC50 (second compound 0.1 µM): 3830 nM | IC50 (second compound 0.316 µM): 2300 nM | IC50 (second compound 1 µM): 2300 nM | IC50 (second compound 3.16 µM): 2460 nM | IC50 (second compound 10 µM): 790 nM | viability, T/C [1]: 96.4% | viability, T/C [2]: 77.6% | viability, T/C [3]: 73.4% | viability, T/C [4]: 68.2% | viability, T/C [5]: 44% | viability, T/C [6]: 32.5% | viability, T/C [7]: 121% | viability, T/C [8]: 94.4% | viability, T/C [9]: 90.5% | viability, T/C [10]: 68.4% | viability, T/C [11]: 52.2% | viability, T/C [12]: 36.4% | viability, T/C [13]: 89.8% | viability, T/C [14]: 91.1% | viability, T/C [15]: 79.3% | viability, T/C [16]: 64.4% | viability, T/C [17]: 44.9% | viability, T/C [18]: 29.5% | viability, T/C [19]: 110% | viability, T/C [20]: 91.6% | viability, T/C [21]: 76.3% | viability, T/C [22]: 53.3% | viability, T/C [23]: 52% | viability, T/C [24]: 33.7% | viability, T/C [25]: 117% | viability, T/C [26]: 108% | viability, T/C [27]: 103% | viability, T/C [28]: 58.8% | viability, T/C [29]: 53.6% | viability, T/C [30]: 26.2% | viability, T/C [31]: 106% | viability, T/C [32]: 73.6% | viability, T/C [33]: 76.3% | viability, T/C [34]: 43.3% | viability, T/C [35]: 26.4% | viability, T/C [36]: 20.1%

CC1COCCN1c1cc(C2(O)CC3CCC(C2)O3)c2cnn(-c3ccn[nH]3)c2n1 (stereo not drawn) + Cc1[nH]c2ccc(F)cc2c1-c1nc2c3cccnc3c3ncccc3c2[nH]1
IC50 (second compound 0.0316 µM): 144 nM | IC50 (second compound 0.1 µM): 95 nM | IC50 (second compound 0.316 µM): < 31.6 nM | IC50 (second compound 1 µM): < 31.6 nM | IC50 (second compound 3.16 µM): < 31.6 nM | IC50 (second compound 10 µM): < 31.6 nM | viability, T/C [1]: 68% | viability, T/C [2]: 48% | viability, T/C [3]: 39% | viability, T/C [4]: 40.7% | viability, T/C [5]: 28% | viability, T/C [6]: 14% | viability, T/C [7]: 61.3% | viability, T/C [8]: 40.1% | viability, T/C [9]: 46.8% | viability, T/C [10]: 34.9% | viability, T/C [11]: 31.5% | viability, T/C [12]: 17.4% | viability, T/C [13]: 48.8% | viability, T/C [14]: 44.1% | viability, T/C [15]: 44.2% | viability, T/C [16]: 37.6% | viability, T/C [17]: 28.3% | viability, T/C [18]: 12.6% | viability, T/C [19]: 48.9% | viability, T/C [20]: 37.1% | viability, T/C [21]: 38% | viability, T/C [22]: 27.4% | viability, T/C [23]: 19.9% | viability, T/C [24]: 12.7% | viability, T/C [25]: 36.8% | viability, T/C [26]: 38.8% | viability, T/C [27]: 30.3% | viability, T/C [28]: 26.7% | viability, T/C [29]: 18.3% | viability, T/C [30]: 8.63% | viability, T/C [31]: 41.4% | viability, T/C [32]: 37.4% | viability, T/C [33]: 31.6% | viability, T/C [34]: 29.7% | viability, T/C [35]: 25.4% | viability, T/C [36]: 12.1%

C#Cc1c(F)ccc2cc(O)cc(-c3ncc4c(N5CC6CCC(C5)N6)nc(OCC56CCCN5CC(F)C6)nc4c3F)c12 (stereo not drawn) + CN(C)c1ccc(Nc2c3ccc(NC(=O)CCN4CCCC4)cc3nc3cc(NC(=O)CCN4CCCC4)ccc23)cc1
IC50 (second compound 0.0316 µM): > 10000 nM | IC50 (second compound 0.1 µM): > 10000 nM | IC50 (second compound 0.316 µM): > 10000 nM | IC50 (second compound 1 µM): > 10000 nM | IC50 (second compound 3.16 µM): > 10000 nM | IC50 (second compound 10 µM): 4610 nM | viability, T/C [1]: 92.2% | viability, T/C [2]: 104% | viability, T/C [3]: 104% | viability, T/C [4]: 88.5% | viability, T/C [5]: 88.9% | viability, T/C [6]: 101% | viability, T/C [7]: 103% | viability, T/C [8]: 118% | viability, T/C [9]: 104% | viability, T/C [10]: 100% | viability, T/C [11]: 88.5% | viability, T/C [12]: 94.9% | viability, T/C [13]: 102% | viability, T/C [14]: 94.1% | viability, T/C [15]: 115% | viability, T/C [16]: 83.5% | viability, T/C [17]: 102% | viability, T/C [18]: 88% | viability, T/C [19]: 87% | viability, T/C [20]: 102% | viability, T/C [21]: 110% | viability, T/C [22]: 104% | viability, T/C [23]: 98.9% | viability, T/C [24]: 92.9% | viability, T/C [25]: 106% | viability, T/C [26]: 101% | viability, T/C [27]: 93.7% | viability, T/C [28]: 89.8% | viability, T/C [29]: 83.3% | viability, T/C [30]: 84.1% | viability, T/C [31]: 86.1% | viability, T/C [32]: 89.3% | viability, T/C [33]: 93.9% | viability, T/C [34]: 66% | viability, T/C [35]: 64.2% | viability, T/C [36]: 28.7%

Cn1ncnc1[C@H]1c2n[nH]c(=O)c3cc(F)cc(c23)N[C@@H]1c1ccc(F)cc1 + CN(C)c1ccc(Nc2c3ccc(NC(=O)CCN4CCCC4)cc3nc3cc(NC(=O)CCN4CCCC4)ccc23)cc1
IC50 (second compound 0.0316 µM): > 316 nM | IC50 (second compound 0.1 µM): > 316 nM | IC50 (second compound 0.316 µM): > 316 nM | IC50 (second compound 1 µM): > 316 nM | IC50 (second compound 3.16 µM): > 316 nM | IC50 (second compound 10 µM): > 316 nM | viability, T/C (second compound 0.0316 µM, first compound 0.000999 µM): 118% | viability, T/C (second compound 0.0316 µM, first compound 0.00316 µM): 93.2% | viability, T/C (second compound 0.0316 µM, first compound 0.00999 µM): 103% | viability, T/C [1]: 86.3% | viability, T/C (second compound 0.0316 µM, first compound 0.0999 µM): 80.8% | viability, T/C [3]: 76.8% | viability, T/C (second compound 0.1 µM, first compound 0.000999 µM): 104% | viability, T/C (second compound 0.1 µM, first compound 0.00316 µM): 97.5% | viability, T/C (second compound 0.1 µM, first compound 0.00999 µM): 100% | viability, T/C [7]: 80.8% | viability, T/C (second compound 0.1 µM, first compound 0.0999 µM): 87.8% | viability, T/C [9]: 76.2% | viability, T/C (second compound 0.316 µM, first compound 0.000999 µM): 106% | viability, T/C (second compound 0.316 µM, first compound 0.00316 µM): 108% | viability, T/C (second compound 0.316 µM, first compound 0.00999 µM): 100% | viability, T/C [13]: 106% | viability, T/C (second compound 0.316 µM, first compound 0.0999 µM): 87.6% | viability, T/C [15]: 62% | viability, T/C (second compound 1 µM, first compound 0.000999 µM): 101% | viability, T/C (second compound 1 µM, first compound 0.00316 µM): 97.3% | viability, T/C (second compound 1 µM, first compound 0.00999 µM): 114% | viability, T/C [19]: 110% | viability, T/C (second compound 1 µM, first compound 0.0999 µM): 95.7% | viability, T/C [21]: 81.2% | viability, T/C (second compound 3.16 µM, first compound 0.000999 µM): 112% | viability, T/C (second compound 3.16 µM, first compound 0.00316 µM): 112% | viability, T/C (second compound 3.16 µM, first compound 0.00999 µM): 91.8% | viability, T/C [25]: 80.7% | viability, T/C (second compound 3.16 µM, first compound 0.0999 µM): 93.1% | viability, T/C [27]: 69.8% | viability, T/C (second compound 10 µM, first compound 0.000999 µM): 91.7% | viability, T/C (second compound 10 µM, first compound 0.00316 µM): 86.3% | viability, T/C (second compound 10 µM, first compound 0.00999 µM): 96.2% | viability, T/C [31]: 68.7% | viability, T/C (second compound 10 µM, first compound 0.0999 µM): 73.2% | viability, T/C [33]: 53.7%
